Reference: publication PMC6349357, “Computational and experimental analysis of bioactive peptide linear motifs in the integrin adhesome” (PLoS ONE, 2019)
Marks after values point to notes of the source that are not given here.

Legend:
[1] = system: resting platelets; test: Platelet aggregation induced by peptide in resting washed platelets (activation); type: cell-based, human (healthy volunteers); conditions: for Activation: platelet aggregation in resting platelets after 6 minutes incubation with peptide, pal-peptides 20 μM, tat-peptides 50 μM, optical density, aggregometer, mean, n>=3; for Activation / Activation, donor 14 06 13 / Activation, donor 20 08 13 / Activation, 5μM / Activation, 20μM: unit assumed; for Aggregation before TRAP activation, donor h: replicate donor h; for Aggregation before TRAP activation, donor h / Aggregation before TRAP activation, donor i / Aggregation before TRAP activation, donor j: pal 20 μM, tat 50 μM; for Aggregation before TRAP activation, donor i: replicate donor i; for Aggregation before TRAP activation, donor j: replicate donor j; for Activation, donor 14 06 13: replicate 14_06_13; for Activation, donor 14 06 13 / Activation, donor 18_06_13 / Activation, donor 20_06_13 / Activation, donor 20 08 13 / Activation, donor 22_08_13_DONOR1 / Activation, donor 22_08_13_DONOR2: SDC4 peptides and controls, 20 μM; for Activation, donor 18_06_13: replicate 18_06_13; for Activation, donor 18_06_13 / Activation, donor 20_06_13: in % (unit assumed); for Activation, donor 20_06_13: replicate 20_06_13; for Activation, donor 20 08 13: replicate 20_08_13; for Activation, donor 22_08_13_DONOR1: replicate 22_08_13_DONOR1; for Activation, donor 22_08_13_DONOR2: replicate 22_08_13_DONOR2; for Activation, 5μM / Activation, 20μM: S3 Table, n=3; for Activation, 5μM: peptide 5 μM; for Activation, 20μM: peptide 20 μM
Procedure: (§1) Blood was drawn from healthy volunteers into a syringe containing a final volume of 15% Acid Citrate Dextrose (ACD). The blood/ACD mixture was then aliquoted into 15 ml Cellstar tubes, at volumes of 5ml per tube, and centrifuged at 150 rcf for 10 minutes to obtain platelet rich plasma (PRP). PRP was then transferred to a 50ml tube using a pipette. The pH was then adjusted to 6.5. Prostaglandin (PGE1) was then added with a final concentration of 1μM. The PRP was then centrifuged at 750 rcf. After centrifugation the platelet poor plasma (PPP) was discarded and the pellet was resuspended in buffer A (6 mM dextrose, 130 mM NaCl, 9 mM NaHCO3, 10 mM sodium citrate, 10 mM Tris base, 3 mM KCl, 0.81 mM KH2PO4 and 0.9 mM MgCl26H2O, pH 7.4). A platelet concentration of 3x10^5/μl or 1x10^6/μl was obtained by dilution depending on the experiment in which they were used. Platelets were left to rest for 45 minutes and supplemented with 1.8mM calcium chloride prior to use.
(§2) A platelet concentration of 3x10^5 /μl was used when performing standard aggregations and a concentration of 1x10^6 /μl was used for sample preparation for western blot analysis. The extent of platelet aggregation was measured by quantifying the optical density of the samples using the Bio-Data PAP-8 aggregometer (platelet aggregation profiler, Horsham, PA, USA). A temperature of 37°C was maintained and samples were stirred using magnets spinning at 1100 rpm. 200 μl of washed platelets was added to each aggregation tube. Different volumes of buffer, peptide and TRAP were added to achieve the desired concentrations. Peptide/buffer was added to each well after two minutes. TRAP, with a final concentration depending on the experiment, was added 6 minutes later and data was collected for an additional 7 minutes.

[2] = system: TRAP-activated platelets; test: Inhibition of TRAP-induced platelet aggregation after pre-incubation with peptide; type: cell-based, human (healthy volunteers); conditions: for Aggregation after TRAP activation, donor h: replicate donor h; for Aggregation after TRAP activation, donor h / Aggregation after TRAP activation, donor i / Aggregation after TRAP activation, donor j: pal 20 μM, tat 50 μM; for Aggregation after TRAP activation, donor i: replicate donor i; for Aggregation after TRAP activation, donor j: replicate donor j; for Summary of effects of SDC4-derived palmitylated peptides and scrambled controls, 20μM: S2 Table B / S2 Fig, activation of resting platelets and inhibition of aggregation induced by 4 μM TRAP, in words; for Inhibition, donor 14_06_13: replicate 14_06_13; for Inhibition, donor 18_06_13: replicate 18_06_13; for Inhibition, donor 20_06_13: replicate 20_06_13; for Inhibition, donor 20_08_13: replicate 20_08_13; for Aggregation after TRAP, peptide alone 1x (A 1x / B 1x) / Aggregation after TRAP, peptide alone 2x (A 2x / B 2x): TRAP 2 μM after 6 minutes pre-incubation, mean n = 3; for Aggregation after TRAP, peptide alone 1x (A 1x / B 1x): 4 μM pal-peptides, 10 μM tat-peptides; for Aggregation after TRAP, peptide alone 2x (A 2x / B 2x): double concentration of 4 μM (pal) / 10 μM (tat)
Procedure: as §1, §2

[3] = platelet aggregation induced by 4 μM TRAP in platelets pre-incubated with peptide (low value = inhibition), pal-peptides 20 μM, tat-peptides 50 μM, mean, n>=3
[4] = replicate 22_08_13_DONOR1, peptide 20 μM, TRAP 4 μM
[5] = replicate 22_08_13_DONOR2, peptide 20 μM, TRAP 4 μM
[6] = S3 Table, peptide 5 μM, aggregation after TRAP, n=3
[7] = S3 Table, peptide 20 μM, aggregation after TRAP, n=3

SSTLSKKRPPPPPPGHKRTLSD-tat-(NH2) [AMAP1-tat, ASAP1/DDEF2 peptide with C-terminal tat]
Activation [1]: 4%
Aggregation before TRAP activation, donor h [1]: 4
Aggregation before TRAP activation, donor i [1]: 3
Aggregation before TRAP activation, donor j [1]: 5
Platelet aggregation remaining after TRAP (low = inhibition) [2, 3]: 72
Aggregation after TRAP activation, donor h ([2]; TRAP 4 μM): 76
Aggregation after TRAP activation, donor i ([2]; TRAP 4 μM): 62
Aggregation after TRAP activation, donor j ([2]; TRAP 4 μM): 79

YKDSMERDKGK [pal-SDC4_JM Control 1, scrambled control of pal-SDC4_JM, reference compound]
Effects on activation of aggregation at 1, 5 and 20 μM ([1]; S2 Fig A legend, three doses 1, 5, 20 μM): activatory effects
Activation, donor 14 06 13 [1]: 69%
Activation, donor 18_06_13 [1]: 68
Activation, donor 20_06_13 [1]: 66
Activation, donor 20 08 13 [1]: 70%
Activation, donor 22_08_13_DONOR1 [1]: 71
Activation, donor 22_08_13_DONOR2 [1]: 65
Summary of effects of SDC4-derived palmitylated peptides and scrambled controls, 20μM [2]: Activator
Inhibition, donor 14_06_13 ([2]; peptide 20 μM, TRAP 4 μM): 76
Inhibition, donor 18_06_13 ([2]; peptide 20 μM, TRAP 4 μM): 72
Inhibition, donor 20_06_13 ([2]; peptide 20 μM, TRAP 4 μM): 71
Inhibition, donor 20_08_13 ([2]; peptide 20 μM, TRAP 4 μM): 71
Platelet aggregation remaining after TRAP (low = inhibition) [2, 4]: 68
Platelet aggregation remaining after TRAP (low = inhibition) [2, 5]: 70

pal-FAKFEEERAR-(NH2) [pal-ITGB3_middle1, N-terminally palmitylated ITGB3 peptide …]
Activation, 5μM [1]: 2%
Activation, 20μM [1]: 2%
Activation [1]: 0%
Aggregation before TRAP activation, donor h [1]: 1
Aggregation before TRAP activation, donor i [1]: 1
Aggregation before TRAP activation, donor j [1]: 0
Platelet aggregation remaining after TRAP (low = inhibition) [2, 6]: 73
Platelet aggregation remaining after TRAP (low = inhibition) [2, 7]: 68
Aggregation after TRAP, peptide alone 1x (A 1x / B 1x) [2]: 67.67
Aggregation after TRAP, peptide alone 2x (A 2x / B 2x) [2]: 43.67
Platelet aggregation remaining after TRAP (low = inhibition) [2, 3]: 45
Aggregation after TRAP activation, donor h ([2]; TRAP 4 μM): 64
Aggregation after TRAP activation, donor i ([2]; TRAP 4 μM): 60
Aggregation after TRAP activation, donor j ([2]; TRAP 4 μM): 12

pal-KVGAAKR [pal-ITGA2bJM2]
Activation, 5μM [1]: 1%
Activation, 20μM [1]: 1%
Platelet aggregation remaining after TRAP (low = inhibition) [2, 6]: 28
Platelet aggregation remaining after TRAP (low = inhibition) [2, 7]: 3

pal-KVGAAKR-FAKFEEERAR [B14p ITGA2b-JM2 U ITGB3-middle1, palmitylated chimeric peptide]
Activation, 5μM [1]: 2%
Activation, 20μM [1]: 0%
Platelet aggregation remaining after TRAP (low = inhibition) [2, 6]: 71
Platelet aggregation remaining after TRAP (low = inhibition) [2, 7]: 3

pal-KVGAAKR-LGKKPIYKK [B19p ITGA2b-JM2 U SDC4-middle, palmitylated chimeric peptide]
Activation, 5μM [1]: 2%
Activation, 20μM [1]: 3%
Platelet aggregation remaining after TRAP (low = inhibition) [2, 6]: 66
Platelet aggregation remaining after TRAP (low = inhibition) [2, 7]: 6

pal-KVGAAKR-RMKKKDEGSYD [B16p ITGA2b-JM U SDC4-JM, palmitylated chimeric peptide]
Activation, 5μM [1]: 3%
Activation, 20μM [1]: 0%
Platelet aggregation remaining after TRAP (low = inhibition) [2, 6]: 72
Platelet aggregation remaining after TRAP (low = inhibition) [2, 7]: 4

pal-KVGAAKR-TLELDRLMASLS [B21p ITGA2b-JM2 U TGFB1I1-LD, palmitylated chimeric peptide]
Activation, 5μM [1]: 2%
Activation, 20μM [1]: 1%
Platelet aggregation remaining after TRAP (low = inhibition) [2, 6]: 70
Platelet aggregation remaining after TRAP (low = inhibition) [2, 7]: 28

pal-KVGAAKR-WEQLLTTIARTINEVENQI [B13p ITGA2b-JM2 U ACTN1-VBS, palmitylated chimeric peptide]
Activation, 5μM [1]: 3%
Activation, 20μM [1]: 12%
Platelet aggregation remaining after TRAP (low = inhibition) [2, 6]: 75
Platelet aggregation remaining after TRAP (low = inhibition) [2, 7]: 63

pal-KVGFFKR-FAKFEEERAR [B15p ITGA2b-JM U ITGB3-middle1, palmitylated chimeric peptide]
Activation, 5μM [1]: 2%
Activation, 20μM [1]: 4%
Platelet aggregation remaining after TRAP (low = inhibition) [2, 6]: 72
Platelet aggregation remaining after TRAP (low = inhibition) [2, 7]: 71

pal-KVGFFKR-LGKKPIYKK [B18p ITGA2b-JM U SDC4-middle, palmitylated chimeric peptide]
Activation, 5μM [1]: 61%
Activation, 20μM [1]: 13%
Platelet aggregation remaining after TRAP (low = inhibition) [2, 6]: 65
Platelet aggregation remaining after TRAP (low = inhibition) [2, 7]: 27

pal-KVGFFKR-RMKKKDEGSYD [B17p ITGA2b-JM2 U SDC4-JM, palmitylated chimeric peptide]
Activation, 5μM [1]: 1%
Activation, 20μM [1]: 2%
Platelet aggregation remaining after TRAP (low = inhibition) [2, 6]: 66
Platelet aggregation remaining after TRAP (low = inhibition) [2, 7]: 11

pal-KVGFFKR-TLELDRLMASLS [B20p ITGA2b-JM U TGFB1I1-LD, palmitylated chimeric peptide]
Activation, 5μM [1]: 2%
Activation, 20μM [1]: 2%
Platelet aggregation remaining after TRAP (low = inhibition) [2, 6]: 71
Platelet aggregation remaining after TRAP (low = inhibition) [2, 7]: 66

pal-KVGFFKR-WEQLLTTIARTINEVENQI [B12p ITGA2b-JM U ACTN1-VBS, palmitylated chimeric peptide]
Activation, 5μM [1]: 1%
Activation, 20μM [1]: 7%
Platelet aggregation remaining after TRAP (low = inhibition) [2, 6]: 74
Platelet aggregation remaining after TRAP (low = inhibition) [2, 7]: 66

pal-LGKKPIYKK-(NH2) [pal-SDC4_middle, N-terminally palmitylated syndecan-4 middle (variable) region peptide]
Activation, 5μM ([1]; listed as A8p SDC4-middle): 2%
Activation, 5μM ([1]; listed as Variable (B)): 1%
Activation, 20μM [1]: 1%
Activation [1]: 0%
Activation, donor 14 06 13 [1]: 1%
Activation, donor 18_06_13 [1]: -1
Activation, donor 20_06_13 [1]: 2
Activation, donor 20 08 13 [1]: 0%
Activation, donor 22_08_13_DONOR1 [1]: 1
Activation, donor 22_08_13_DONOR2 [1]: 0
Aggregation before TRAP activation, donor h [1]: 1
Aggregation before TRAP activation, donor i [1]: 0
Aggregation before TRAP activation, donor j [1]: 1
Aggregation (inhibition effects of syndecan-derived peptides) ([2]; S2 Table A, peptide 20 μM, TRAP 4 μM, mean, n=6): 26
Summary of effects of SDC4-derived palmitylated peptides and scrambled controls, 20μM [2]: Inhibitor
Platelet aggregation remaining after TRAP (low = inhibition) ([2]; S3 Table, peptide 5 μM, aggregation after TRAP, n=3, listed as A8p SDC4-middle): 72
Platelet aggregation remaining after TRAP (low = inhibition) ([2]; S3 Table, peptide 5 μM, aggregation after TRAP, n=3, listed as Variable (B)): 59
Platelet aggregation remaining after TRAP (low = inhibition) ([2]; S3 Table, peptide 20 μM, aggregation after TRAP, n=3, listed as A8p SDC4-middle): 41
Platelet aggregation remaining after TRAP (low = inhibition) ([2]; S3 Table, peptide 20 μM, aggregation after TRAP, n=3, listed as Variable (B)): 26
Aggregation after TRAP, peptide alone 1x (A 1x / B 1x) [2]: 31.67
Aggregation after TRAP, peptide alone 2x (A 2x / B 2x) [2]: 1.67
Platelet aggregation after TRAP activation [2, 3]: 3 ^*
Inhibition, donor 14_06_13 ([2]; peptide 20 μM, TRAP 4 μM): 60
Inhibition, donor 18_06_13 ([2]; peptide 20 μM, TRAP 4 μM): 23
Inhibition, donor 20_06_13 ([2]; peptide 20 μM, TRAP 4 μM): 51
Inhibition, donor 20_08_13 ([2]; peptide 20 μM, TRAP 4 μM): 7
Platelet aggregation remaining after TRAP (low = inhibition) [2, 4]: 3
Platelet aggregation remaining after TRAP (low = inhibition) [2, 5]: 14
Aggregation after TRAP activation, donor h ([2]; TRAP 4 μM): 3
Aggregation after TRAP activation, donor i ([2]; TRAP 4 μM): 2
Aggregation after TRAP activation, donor j ([2]; TRAP 4 μM): 4

pal-NNPLYKEA-(NH2) [pal-ITGB3_middle2, N-terminally palmitylated ITGB3 peptide NNPLYKEA]
Activation [1]: 1%
Aggregation before TRAP activation, donor h [1]: 2
Aggregation before TRAP activation, donor i [1]: 2
Aggregation before TRAP activation, donor j [1]: 1
Platelet aggregation remaining after TRAP (low = inhibition) [2, 3]: 74
Aggregation after TRAP activation, donor h ([2]; TRAP 4 μM): 74
Aggregation after TRAP activation, donor i ([2]; TRAP 4 μM): 71
Aggregation after TRAP activation, donor j ([2]; TRAP 4 μM): 78
